Experiments:
[1] = target: T1, Recombinant human integrin αVβ3 (Homo sapiens, UniProt P05106+P06756); test: Inhibition of biotinylated vitronectin binding to purified αVβ3 receptor (solid phase receptor binding assay); conditions: conjugates, Table 2; mean ± SD of triplicate determinations
T1 construct: purchased R&D Systems, Minneapolis, MN, USA
Procedure: Conjugates 7–11 were evaluated for their ability to inhibit biotinylated vitronectin binding to the purified αVβ3 receptor. Screening assays were performed by incubating the immobilized integrin receptor with solutions of the cyclo[DKP-RGD]-α-amanitin and cyclo[DKP-isoDGR]-α-amanitin conjugates 7–11 at different concentrations (10^−12 to 10^−5 M) in the presence of biotinylated vitronectin (1 µg mL^−1) and measuring bound vitronectin. […]
to assist the dissolution). The solution obtained was filtered (polypropylene, 0.45 μm, 13 mm ø, PK/100) and injected in the HPLC, affording purified products. Purity analyses were carried on a Dionex Ultimate 3000 instrument equipped with a Dionex RS Variable Wavelenght detector (column: Atlantis® Prep T3 OBDTM 5 μm 19 × 100 mm). The analyte (1 mg) was dissolved in 1 mL of H2O and was injected using the same gradient used in the purification step. The analysis of the integrals and the relative percentage of purity were performed with the software Chromeleon 6.80 SR11 Build 3161. Also, preparative HPLC LaPrep∑ equipped with autosampler AS3950 and a Phenomenex Luna C-18(2) column, 10 µm, 250 × 21.2 mm, with precolumn at 30 mL/min flow rate and analytical HPLC performed on Hitachi Chromaster (column oven Chromaster 5310, pump Chromaster 5110, autosampler Chromaster 5210, DAD Chromaster 5430) equipped with a Phenomenex Luna C-18(2) column, 10 µm, 250 × 4.6 mm, with precolumn at 1.4 mL/min flow rate were used. Freeze-drying: The product was dissolved in water and frozen with dry ice. The freeze-drying was carried out at least for 48 h at −50 °C using the instrument 5Pascal Lio5P DGT.
Solid phase receptor binding assays
Recombinant human integrin αVβ3 (R&D Systems, Minneapolis, MN, USA) was diluted to 0.5 µg/mL in coating buffer containing 20 mM Tris-HCl (pH 7.4), 150 mM NaCl, 1 mM MnCl2, 2 mM CaCl2, and 1 mM MgCl2. […] Absorbance at 415 nm was read in a SynergyTM HT Multi-Detection Microplate Reader (BioTek Instruments, Inc.). […]

[2] = tested on: MDA-MB-468 cells (breast adenocarcinoma, αVβ3−); test: cells; type: cell-based; conditions: 96 hours treatment; triplicate; read-out: IC50 MDA-MB-468 (αVβ3−), inhibition of cell viability
Procedure: (§1) The cell lines were treated with different concentrations of the free drug α-amanitin and conjugates 7–11 for 96 hours. […]
(§2) described recently.[S1] The SNP profiles matched known profiles or were unique. The purity of the cell lines was validated using the Multiplex cell Contamination Test by Multiplexion (Heidelberg, Germany) as described recently.[S2] No mycoplasma, SMRV or interspecies contamination was detected. U87-MG, MDA-MB 468 and A549 cells were cultivated continuously for not more than 3 months in MEM Eagle´s, DMEM or Ham´s F12 medium, respectively, supplemented with 10% heat inactivated fetus calf serum, L-glutamine and antibiotics. Cell lines were maintained at 37 °C and 5% CO2 in a high humidity atmosphere.
(§3) Cell therapy and viability assay
(§4) Cell viability assays were performed in U87-MG, A549 and MDA-MB 468 cell lines according to the following procedure: 2 × 10^3 cells/well were plated in 96-well black clear bottom plates (Perkin Elmer) and incubated overnight. 1:5 serial dilutions of compounds 7–11 were prepared in cell culture media. The compounds were added to the cell culture and incubated for additional 96 h. Starting concentration of compounds 7–11 in the wells was 1 × 10−5 M and cell viability was determined with the CellTiterGlo 2.0 assay (Promega) in accordance to manufacturer’s instructions. The cell viability was calculated in relation to the non-treated controls for each cell line. All samples were measured in triplicate. Data analysis was carried out using software GraphPad Prism (GraphPad Software Inc., La Jolla, CA, USA). […]
[S1] F. Castro, W. G. Dirks, S. Fähnrich, A. Hotz-Wagenblatt, M. Pawlita, M. Schmitt, Int. J. Cancer […]
[S2] M. Schmitt, M. Pawlita, Nucleic Acids Res. 2009, 37, e119.

[3] = tested on: A549 cells (human lung carcinoma, αVβ3−); test: cells; type: cell-based; conditions: 96 hours treatment; triplicate; read-out: IC50 A549 (αVβ3−), inhibition of cell viability
Procedure: as §1, §2, §3, §4

T1 sequence (P06756 31-992 limits assumed): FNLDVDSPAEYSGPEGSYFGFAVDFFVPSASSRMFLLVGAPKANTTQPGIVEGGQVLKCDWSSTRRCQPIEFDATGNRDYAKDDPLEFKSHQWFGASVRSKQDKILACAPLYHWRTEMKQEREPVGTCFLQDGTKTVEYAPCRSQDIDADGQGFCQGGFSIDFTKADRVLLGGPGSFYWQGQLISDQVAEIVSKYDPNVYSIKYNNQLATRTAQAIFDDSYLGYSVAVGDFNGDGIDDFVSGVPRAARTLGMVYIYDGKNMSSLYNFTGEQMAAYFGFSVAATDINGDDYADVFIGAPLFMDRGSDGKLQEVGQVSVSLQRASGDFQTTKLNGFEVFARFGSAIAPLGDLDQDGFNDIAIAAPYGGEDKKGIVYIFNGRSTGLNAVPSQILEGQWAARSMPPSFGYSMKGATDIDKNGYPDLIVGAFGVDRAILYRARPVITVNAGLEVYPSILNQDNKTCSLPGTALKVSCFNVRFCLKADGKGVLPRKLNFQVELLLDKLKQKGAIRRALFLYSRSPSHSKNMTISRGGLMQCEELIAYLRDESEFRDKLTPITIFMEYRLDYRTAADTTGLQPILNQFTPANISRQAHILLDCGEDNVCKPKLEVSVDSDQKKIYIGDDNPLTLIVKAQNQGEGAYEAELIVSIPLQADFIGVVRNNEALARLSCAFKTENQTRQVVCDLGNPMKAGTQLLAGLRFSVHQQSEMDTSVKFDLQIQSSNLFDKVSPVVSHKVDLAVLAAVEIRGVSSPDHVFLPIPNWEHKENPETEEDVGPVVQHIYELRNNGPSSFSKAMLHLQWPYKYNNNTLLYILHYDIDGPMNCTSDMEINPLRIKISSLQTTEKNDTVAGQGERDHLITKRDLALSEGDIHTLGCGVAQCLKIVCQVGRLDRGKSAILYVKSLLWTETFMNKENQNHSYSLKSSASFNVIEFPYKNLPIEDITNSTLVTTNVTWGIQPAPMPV
T1 sequence (P05106 27-718 limits assumed): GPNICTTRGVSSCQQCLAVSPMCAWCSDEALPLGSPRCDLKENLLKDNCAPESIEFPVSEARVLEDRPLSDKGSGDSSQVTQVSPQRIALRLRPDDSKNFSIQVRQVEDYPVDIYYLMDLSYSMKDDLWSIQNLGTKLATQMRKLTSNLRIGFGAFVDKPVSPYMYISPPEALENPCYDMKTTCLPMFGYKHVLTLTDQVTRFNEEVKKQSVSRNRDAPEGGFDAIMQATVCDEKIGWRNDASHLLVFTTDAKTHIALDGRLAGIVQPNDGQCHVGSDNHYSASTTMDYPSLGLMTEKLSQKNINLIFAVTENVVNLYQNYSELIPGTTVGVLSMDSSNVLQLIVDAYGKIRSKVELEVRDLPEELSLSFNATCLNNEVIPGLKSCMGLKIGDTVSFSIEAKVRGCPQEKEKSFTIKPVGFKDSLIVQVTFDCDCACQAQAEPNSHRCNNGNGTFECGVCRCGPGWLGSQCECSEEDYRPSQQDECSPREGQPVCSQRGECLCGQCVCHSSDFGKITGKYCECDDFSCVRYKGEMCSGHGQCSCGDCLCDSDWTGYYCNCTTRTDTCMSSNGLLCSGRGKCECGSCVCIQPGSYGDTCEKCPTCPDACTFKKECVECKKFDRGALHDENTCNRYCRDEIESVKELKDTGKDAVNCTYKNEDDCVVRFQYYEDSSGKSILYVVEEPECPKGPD

SMILES: CC[C@H](C)[C@@H]1NC(=O)CNC(=O)[C@@H]2Cc3c([nH]c4cc(OCc5ccc(NC(=O)[C@H](C)NC(=O)[C@@H](NC(=O)CCCC(=O)NCc6ccc(CN7C(=O)[C@H]8CC(=O)N[C@H](C(=O)O)CC(=O)NCC(=O)N[C@@H](CCCNC(=N)N)C(=O)NC[C@H]7C(=O)N8)cc6)C(C)C)cc5)ccc34)[S@+]([O-])C[C@H](NC(=O)CNC1=O)C(=O)N[C@@H](CC(N)=O)C(=O)N1C[C@H](O)C[C@H]1C(=O)N[C@@H]([C@@H](C)[C@@H](O)CO)C(=O)N2 [Compound 10, cyclo[DKP-isoDGR]-Val-Ala-α-amanitin]
- IC50 [1]: 0.0064 ± 0.0019 µM
- IC50 [2]: 0.059 ± 0.0234 µM
- IC50 [3]: 0.217 ± 0.0983 µM
